Data as given in patent US12568971B2, “Degradative method” (Catexel Technologies Limited, priority 2020, dated 2026).

Columns and labels:
[1] = Dynamic viscosity of alginate solution after treatment (alginate depolymerisation), Brookfield cone/plate viscometer
Method: The bottle was placed in a warm water bath (50° C.) for 60 minutes before being removed and cooled in an ice bath. Finally, the dynamic viscosity was determined using a Brookfield viscosity meter as outlined below. Note 1: A 2 mM solution of [[…])2 (see description of stock 12 above) was mixed with equivalent volume of the 2 mM ascorbic acid stock solution (stock solution 7). Upon contact with the ascorbic acid, the catalyst turned from orange/red to red/purple. Note 2: 0.5 mL of both Me3-TACN ligand (stock solution 10) and MnSO4·H2O (stock solution 8) were mixed, stirred and used as a source of catalyst to be placed in the alginate solution. The dynamic viscosity of the samples was measured using a Brookfield HBDV-II cone/plate viscosity meter equipped with a spindle CPE-40. The viscometer was linked to a water bath to maintain the temperature at 25° C. The apparatus was controlled via computer (external mode) using the Rheocalc software. Initially, the viscometer was zeroed without spindle. Then, the spindle CPE-40 was installed and the gap between the bottom of the cone and the top of the cup was set according to the recommendations given by Brookfield. 0.5 mL of the treated alginate solution was placed in the cup of the viscometer using a disposable plastic syringe before the apparatus was closed and the test program launched. […] Results.

[2] = as above; remark: listed apart in the source

Compound: CC(=O)[O-].CC(=O)[O-].CN1CCN(C)CCN(C)CC1.CN1CCN(C)CCN(C)CC1.[Mn+4].[Mn+4].[O-2].[O-2].[O-2] [[Mn2(μ-O)3(Me3-TACN)2]^2+, [Mn^IVMn^IV(μ-O)3(1,4,7-trimethyl-1,4,7-triazacyclononane)2][CH3COO]2]
- Dynamic Viscosity ([1]; 2.5 μM, pH 8.0, 20 mM H2O2, 4.7 mM NaHCO3, 1 h at 50° C.): 85.0 mPa.s
- Dynamic Viscosity ([1]; 2.5 μM, pH 8.5, 20 mM H2O2, 4.7 mM NaHCO3, 1 h at 50° C.): 72.2 mPa.s
- Dynamic Viscosity ([1]; 2.5 μM, pH 9.0, 20 mM H2O2, 4.7 mM NaHCO3, 1 h at 50° C.): 55.7 mPa.s
- Dynamic Viscosity ([1]; 2.5 μM, pH 9.0, 20 mM H2O2, 1 h at 50° C.): 99.7 mPa · s
- Dynamic Viscosity ([1]; 2.5 μM, pH 9.5, 20 mM H2O2, 4.7 mM NaHCO3, 1 h at 50° C.): 59.5 mPa.s
- Dynamic Viscosity ([1]; 2.5 μM, pH 9.5, 20 mM H2O2, 1 h at 50° C.): 76.8 mPa · s
- Dynamic Viscosity ([1]; 2.5 μM, pH 10.0, 20 mM H2O2, 4.7 mM NaHCO3, 1 h at 50° C.): 81.2 mPa.s
- Dynamic Viscosity ([1]; 2.5 μM, pH 10.0, 20 mM H2O2, 1 h at 50° C.): 60.6 mPa · s
- Dynamic Viscosity ([1]; 2.5 μM, pH 10.5, 20 mM H2O2, 4.7 mM NaHCO3, 1 h at 50° C.): 67.5 mPa.s
- Dynamic Viscosity ([1]; 2.5 μM, pH 10.5, 20 mM H2O2, 1 h at 50° C.): 56.6 mPa · s
- Dynamic Viscosity ([1]; 2.5 μM, pH 11.0, 20 mM H2O2, 1 h at 50° C.): 64.8 mPa · s
- Dynamic Viscosity ([1]; 5 μM, 20 mM ^tBuOOH, 0.25 g/L sodium tetraborate decahydrate pH 9, 60 min at 50° C.): 52.3 mPa · s
- Dynamic Viscosity ([1]; 5 μM, pH 8.0, 20 mM H2O2, 4.7 mM NaHCO3, 1 h at 50° C.): 50.9 mPa.s
- Dynamic Viscosity ([1]; 5 μM, pH 8.5, 20 mM H2O2, 4.7 mM NaHCO3, 1 h at 50° C.): 38.6 mPa.s
- Dynamic Viscosity ([1]; 5 μM, pH 9, 10 mM H2O2, 4.7 mM NaHCO3, 60 min at 50° C.): 21.6 mPa · s
- Dynamic Viscosity ([1]; 5 μM, pH 9.0, 20 mM H2O2, 4.7 mM NaHCO3, 1 h at 50° C.): 24.1 mPa.s
- Dynamic Viscosity ([1]; 5 μM, pH 9.0, 20 mM H2O2, 1 h at 50° C.): 78.1 mPa · s
- Dynamic Viscosity ([1]; 5 μM, pH 9.5, 20 mM H2O2, 4.7 mM NaHCO3, 1 h at 50° C.): 28.0 mPa.s
- Dynamic Viscosity ([1]; 5 μM, pH 9.5, 20 mM H2O2, 1 h at 50° C.): 41.3 mPa · s
- Dynamic Viscosity ([1]; 5 μM, pH 10, 10 mM H2O2, 4.7 mM NaHCO3, 60 min at 50° C.): 40.6 mPa · s
- Dynamic Viscosity ([1]; 5 μM, pH 10.0, 20 mM H2O2, 4.7 mM NaHCO3, 1 h at 40° C.): 54.2 mPa · s
- Dynamic Viscosity ([1]; 5 μM, pH 10.0, 20 mM H2O2, 4.7 mM NaHCO3, 1 h at 50° C.): 61.0 mPa.s
- Dynamic Viscosity ([1]; 5 μM, pH 10.0, 20 mM H2O2, 1 h at 50° C.): 27.2 mPa · s
- Dynamic Viscosity ([1]; 5 μM, pH 10.5, 20 mM H2O2, 4.7 mM NaHCO3, 1 h at 50° C.): 57.0 mPa.s
- Dynamic Viscosity ([1]; 5 μM, pH 10.5, 20 mM H2O2, 1 h at 50° C.): 25.6 mPa · s
- Dynamic Viscosity ([1]; 5 μM, pH 11, 10 mM H2O2, 4.7 mM NaHCO3, 60 min at 50° C.): 62.1 mPa · s
- Dynamic Viscosity ([1]; 5 μM, pH 11.0, 20 mM H2O2, 1 h at 50° C.): 40.4 mPa · s
- Dynamic Viscosity ([1]; 10 μM +1 molar equivalent ascorbic acid, pH 9.0, 0 mM Dequest 2047, 20 mM H2O2, 4.7 mM NaHCO3, 60 minutes at room temperature): 7.9 mPa · s
- Dynamic Viscosity ([1]; 10 μM +1 molar equivalent ascorbic acid, pH 9.0, 20 mM H2O2, 4.7 mM NaHCO3, 60 minutes at 40° C.): 7.4 mPa.s
- Dynamic Viscosity ([1]; 10 μM, no ascorbic acid, pH 9.5, 0 mM Dequest 2047, 20 mM H2O2, 4.7 mM NaHCO3, 60 minutes at room temperature): 19.3 mPa · s
- Dynamic Viscosity ([1]; 10 μM, no ascorbic acid, pH 10.5, 1.0 mM Dequest 2047, 20 mM H2O2, 4.7 mM NaHCO3, 60 minutes at room temperature): 42.6 mPa · s
- Dynamic Viscosity ([1]; 10 μM, 1.5 mM PAA + 1.5 mM H2O2, 0.185M Tris buffer, pH 8.5, 60 min at 30° C.): 85.3 mPa · s
- Dynamic Viscosity ([1]; 10 μM, 3 mM H2O2, 0.185M Tris buffer, pH 8.5, 60 min at 30° C.): 49.4 mPa · s
- Dynamic Viscosity ([1]; 10 μM, pH 8.0, 20 mM H2O2, 4.7 mM NaHCO3, 1 h at 40° C.): 24.2 mPa · s
- Dynamic Viscosity ([1]; 10 μM, pH 8.0, 20 mM H2O2, 4.7 mM NaHCO3, 1 h at 50° C.): 26.3 mPa.s
- Dynamic Viscosity ([1]; 10 μM, pH 8.5, 20 mM H2O2, 4.7 mM NaHCO3, 1 h at 50° C.): 16.1 mPa.s
- Dynamic Viscosity ([1]; 10 μM, pH 9.0, 20 mM H2O2, 4.7 mM NaHCO3, 1 h at 40° C.): 9.1 mPa · s
- Dynamic Viscosity ([1]; 10 μM, pH 9.0, 20 mM H2O2, 4.7 mM NaHCO3, 1 h at 50° C.): 9.4 mPa.s
- Dynamic Viscosity ([1]; 10 μM, pH 9.0, 20 mM H2O2, 1 h at 50° C.): 47.9 mPa · s
- Dynamic Viscosity ([1]; 10 μM, pH 9.5, 20 mM H2O2, 4.7 mM NaHCO3, 1 h at 40° C.): 10.5 mPa · s
- Dynamic Viscosity ([1]; 10 μM, pH 9.5, 20 mM H2O2, 4.7 mM NaHCO3, 1 h at 50° C.): 12.8 mPa.s
- Dynamic Viscosity ([1]; 10 μM, pH 9.5, 20 mM H2O2, 1 h at 50° C.): 16.2 mPa · s
- Dynamic Viscosity ([1]; 10 μM, pH 10.0, 20 mM H2O2, 4.7 mM NaHCO3, 1 h at 50° C.): 38.1 mPa.s
- Dynamic Viscosity ([1]; 10 μM, pH 10.0, 20 mM H2O2, 1 h at 50° C.): 11.9 mPa · s
- Dynamic Viscosity ([1]; 10 μM, pH 10.5, 20 mM H2O2, 4.7 mM NaHCO3, 1 h at 50° C.): 49.4 mPa.s
- Dynamic Viscosity ([1]; 10 μM, pH 10.5, 20 mM H2O2, 1 h at 50° C.): 11.1 mPa · s
- Dynamic Viscosity ([1]; 10 μM, pH 11.0, 20 mM H2O2, 1 h at 50° C.): 37.4 mPa · s
- Dynamic Viscosity ([1]; Entry 4: 2.5 μM catalyst, 2.5 μM ascorbic acid, 2.5 μM Me3TACN ligand, 20 mM H2O2, 4.7 mM NaHCO3, pH 10, 60 min at 50° C.): 72.5 mPa · s
- Dynamic Viscosity ([1]; Entry 5: 2.5 μM catalyst, 2.5 μM ascorbic acid, 5 μM Me3TACN ligand, 20 mM H2O2, 4.7 mM NaHCO3, pH 10, 60 min at 50° C.): 69.3 mPa · s
- Dynamic Viscosity ([1]; Entry 6: 2.5 μM catalyst, 2.5 μM ascorbic acid, 10 μM Me3TACN ligand, 20 mM H2O2, 4.7 mM NaHCO3, pH 10, 60 min at 50° C.): 61.7 mPa · s
- Dynamic Viscosity ([1]; Entry 7: 2.5 μM catalyst, no ascorbic acid, no added ligand, 20 mM H2O2, 4.7 mM NaHCO3, pH 10, 60 min at 50° C.): 78.1 mPa · s
- Dynamic Viscosity ([1]; Entry 8: 2.5 μM catalyst, 2.5 μM Me3TACN ligand, 20 mM H2O2, 4.7 mM NaHCO3, pH 10, 60 min at 50° C.): 73.3 mPa · s
- Dynamic Viscosity ([1]; Entry 9: 2.5 μM catalyst, 5 μM Me3TACN ligand, 20 mM H2O2, 4.7 mM NaHCO3, pH 10, 60 min at 50° C.): 66.6 mPa · s
- Dynamic Viscosity ([1]; Entry 10: 2.5 μM catalyst, 10 μM Me3TACN ligand, 20 mM H2O2, 4.7 mM NaHCO3, pH 10, 60 min at 50° C.): 56.8 mPa · s
- Dynamic Viscosity ([1]; Entry 11: 5 μM catalyst, no added ligand, 20 mM H2O2, 4.7 mM NaHCO3, pH 10, 60 min at 50° C.): 61.0 mPa · s
- Dynamic Viscosity ([1]; Entry 12: 5 μM catalyst, 5 μM Me3TACN ligand, 20 mM H2O2, 4.7 mM NaHCO3, pH 10, 60 min at 50° C.): 54.0 mPa · s
- Dynamic Viscosity ([1]; Entry 13: 5 μM catalyst, 10 μM Me3TACN ligand, 20 mM H2O2, 4.7 mM NaHCO3, pH 10, 60 min at 50° C.): 47.7 mPa · s
- Dynamic Viscosity ([1]; Entry 14: 5 μM catalyst, 20 μM Me3TACN ligand, 20 mM H2O2, 4.7 mM NaHCO3, pH 10, 60 min at 50° C.): 38.1 mPa · s
- Dynamic Viscosity ([2]; 5 μM, pH 9.0, 20 mM H2O2, 4.7 mM NaHCO3, 1 h at 40° C.): 17.9 mPa · s
- Dynamic Viscosity ([2]; 10 μM, 3 mM PAA, 0.185M Tris buffer, pH 8.5, 60 min at 30° C.): 94.8 mPa · s
- Dynamic Viscosity ([2]; 10 μM, pH 10.5, 20 mM H2O2, 4.7 mM NaHCO3, 1 h at 40° C.): 65.5 mPa · s
